Results published in ChEMBL document CHEMBL4354877, “MymA Bioactivated Thioalkylbenzoxazole Prodrug Family Active against Mycobacterium tuberculosis” (J Med Chem, 2020).

Tests used:
Format in all cases: functional
[1] = system: Mycobacterium tuberculosis; test: Antimycobacterial activity against Mycobacterium tuberculosis SG2 expressing ethA and mymA mutant assessed as inhibition of microbial growth incubated for 6 days by alamar blue resazurin assay
[2] = system: Mycobacterium tuberculosis; test: Antimycobacterial activity against Mycobacterium tuberculosis 3-RM1 expressing mymA mutant assessed as inhibition of microbial growth incubated for 6 days by alamar blue resazurin assay
[3] = system: Mycobacterium tuberculosis; test: Antimycobacterial activity against Mycobacterium tuberculosis 2-RM1 expressing ethA frameshift mutant assessed as inhibition of microbial growth incubated for 6 days by alamar blue resazurin assay
[4] = system: Mycobacterium tuberculosis; test: Antimycobacterial activity against Mycobacterium tuberculosis Rv3083::Tn expressing mymA mutant assessed as inhibition of microbial growth incubated for 6 days by alamar blue resazurin assay

With `O=C(CCSc1nc2cc(Cl)ccc2o1)N1CCCC1` the MIC [1] was 80 µM, the MIC [2] was 40 µM and the MIC [3] was 10 µM. The MIC [4] was 40 µM.
